US20210363545A1, “GENETIC SELECTION MARKERS BASED ON ENZYMATIC ACTIVITIES OF THE PYRIMIDINE SALVAGE PATHWAY” (priority 2018, published 2021)
Values after ≈ are worked out from the molar mass of the structure shown.

Tests used:
A. fumigatus Δuprt = assay: plate growth assay based susceptibility testing on solid AMM; type: cell-based, Aspergillus fumigatus
Protocol: Furthermore, 5-FU supplementation inhibits ΔfcyB (see FIG. 4). Inactivation of uprt allows growth of A. fumigatus on AMM supplemented with 100 μg/ml 5FC or 5FU at pH7 (see FIG. 4). At concentrations 10-500 μg/ml 5FC or 5FU, independent of the pH (200 μg/ml 5FC as well as 5FU were also tested and the Δuprt strains grow).
(§1) Plate growth assay based susceptibility testing of A. fumigatus and P. chrysogenum was carried out using solid AMM, for F. oxysporum solid PDA was employed. Low pH medium contained 100 mM citrate buffer (pH5), neutral pH medium 100 mM MOPS buffer (pH7). For strains carrying PxylP tunable reporter genes (sGFP, mKate2PER, sGFPMIT, lacZ), 0.5% xylose was supplemented to the medium to induce gene expression.
(§2) Coding sequences of fcyA and uprt were disrupted in wt (A1160P+) using hygromycin B and zeocin resistance cassettes, respectively. Therefore, deletion constructs comprising approximately 1 kb of 5′ and 3′ NTR linked to the central antibiotic resistance cassette were generated using fusion PCR as previously described (Fraczek, et al., The Journal of antimicrobial chemotherapy 68, 1486-1496 (2013)). Correct integration of constructs was confirmed by Southern analysis (see FIG. 14).
(§3) Among other fungal species, A. fumigatus is susceptible to 5FC (Te Dorsthorst et al., Antimicrob Agents Chemother 48, 3147-3150 (2004); Te Dorsthorst et al., Antimicrobial agents and chemotherapy 49, 3341-3346 (2005)) and is therefore anticipated to harbor genes encoding CD and UPRT in addition to 5FC uptake. […] To analyze their role in 5FC as well as 5FU activity, fcyA and uprt was inactivated in the A. fumigatus strain A1160P+ (Fraczek, et al., The Journal of antimicrobial chemotherapy 68, 1486-1496 (2013)), termed wt here, using hygromycin and phleomycine resistance based deletion cassettes. Due to the interdependency of 5FC activity and environmental pH (Gsaller et al., Antimicrob Agents Chemother 62 (2018); Te Dorsthorst et al., Antimicrob Agents Chemother 48, 3147-3150 (2004)) the contribution of both enzymes as well as FcyB to 5FC and 5FU activity at both pH5 and pH7 was investigated.

P. pastoris = assay: broth microdilution susceptibility testing according to EUCAST; type: cell-based, Komagataella phaffii alias Pichia pastoris
From the text: (§4) To identify encoded A. fumigatus FcyB, FcyA, Uprt, Uk and CntA activities in further fungal species, it was searched for A. fumigatus orthologs in biotechnology-relevant species (Aspergillus niger, Aspergillus oryzae, P. chrysogenum, Komagataella phaffii alias Pichia pastoris, S. cerevisiae, Trichoderma reesei) and in virulence-relevant species (Candida albicans, Cryptococcus neoformans, F. oxysporum). Orthologs to A. fumigatus proteins with an overall identity 40% were considered as putative orthologs if activities could be confirmed by susceptibility testing following a broth microdilution based method according to EUCAST (see Table 10).

P. chrysogenum = assay: as above; type: cell-based, Penicillium chrysogenum
From the text: as §4

A. fumigatus = assay: as above; type: cell-based, Aspergillus fumigatus
From the text: as §4

F. oxysporum = assay: as above; type: cell-based, Fusarium oxysporum
From the text: as §4

T. reesei = assay: as above; type: cell-based, Trichoderma reesei
From the text: as §4

A. niger = assay: as above; type: cell-based, Aspergillus niger
From the text: as §4

S. cersvisiae = assay: as above; type: cell-based, S. cerevisiae
From the text: as §4

C. albicans = assay: as above; type: cell-based, Candida albicans
From the text: as §4

A. oryzae = assay: as above; type: cell-based, Aspergillus oryzae
From the text: as §4

A. fumigatus ΔfcyA = assay: plate growth assay based susceptibility testing on solid AMM; type: cell-based, Aspergillus fumigatus; conditions: up to 100 μg/ml, regardless of the pH
Protocol: as §1, §2
Among other fungal species, A. fumigatus is susceptible to 5FC (Te Dorsthorst et al., Antimicrob Agents Chemother 48, 3147-3150 (2004); Te Dorsthorst et al., Antimicrobial agents and chemotherapy 49, 3341-3346 (2005)) and is therefore anticipated to harbor genes encoding CD and UPRT in addition to 5FC uptake. […]

C. neoformans = assay: broth microdilution susceptibility testing according to EUCAST; type: cell-based, Cryptococcus neoformans
From the text: as §4

A. fumigatus ΔfcyB = assay: plate growth assay based susceptibility testing on solid AMM; type: cell-based, Aspergillus fumigatus; conditions: for growth of ΔfcyB: 100 μg/ml
Protocol: (§5) pH 5 transcriptionally activates fcyB mediated uptake of 5FC. […] Inactivation of fcyB leads to resistance at 10 μg/ml 5FC at pH 5. Inactivation of fcyB leads to resistance on AMM (AMM Composition: 55.5 mM D-glucose, 20.0 mM ammonium tartrate, 7 mM KCl, 2.1 mM MgSO4 x 7H2O, 11.2 mM KH2PO4, 0.09 μM Na2B4O7 x 10H2O, 1 μM CuSO4 x 5H2O, 10 μM FeSO4 x 7H2O, 4.5 μM MnSO4 x 4H2O, 3.1 μM Na2MoO4 x 10H2O, […] ZnSO4 x 7H2O, 0.7% Agar; finally adjusted to pH 6.5 using NaOH before autoclaving) supplemented with 10 μg/ml 5FC and 100 mM citrate buffer pH 5.
as §1, §3

[1] = test system: A. fumigatus wt (A1160P+); assay: as above; type: cell-based, Aspergillus fumigatus
Protocol: as §5, §1, §3

SMILES: Nc1nc(=O)[nH]cc1F [5FC, 5-flucytosine]
- growth of Δuprt strains (A. fumigatus Δuprt; 200 μg/ml): grow
- growth after inactivation of uprt (A. fumigatus Δuprt; AMM supplemented with 100 μg/ml, pH7): allows growth
- resistance of Δuprt (A. fumigatus Δuprt; up to 100 μg/ml, regardless of the pH): full resistance
- MIC (P. pastoris; pH 5): 0.39 mg/L (≈ 3.02 µM)
- MIC (P. pastoris; pH 7): 0.39 mg/L (≈ 3.02 µM)
- MIC (P. chrysogenum; pH 5): 0.39 mg/L (≈ 3.02 µM)
- MIC (P. chrysogenum; pH 7): 3.12 mg/L (≈ 24.2 µM)
- MIC (A. fumigatus; pH 5): 0.39 mg/L (≈ 3.02 µM)
- MIC (A. fumigatus; pH 7): 400 mg/L (≈ 3100 µM)
- MIC (F. oxysporum; pH 5): >400 mg/L
- MIC (F. oxysporum; pH 7): >400 mg/L
- MIC (T. reesei; pH 5): >400 mg/L
- MIC (T. reesei; pH 7): >400 mg/L
- MIC (A. niger; pH 5): 0.39 mg/L (≈ 3.02 µM)
- MIC (A. niger; pH 7): 6.25 mg/L (≈ 48.4 µM)
- MIC (S. cersvisiae; pH 5): 0.39 mg/L (≈ 3.02 µM)
- MIC (S. cersvisiae; pH 7): 0.39 mg/L (≈ 3.02 µM)
- MIC (C. albicans; pH 5): 0.39 mg/L (≈ 3.02 µM)
- MIC (C. albicans; pH 7): 0.39 mg/L (≈ 3.02 µM)
- MIC (A. oryzae; pH 5): 0.39 mg/L (≈ 3.02 µM)
- MIC (A. oryzae; pH 7): 400 mg/L (≈ 3100 µM)
- resistance of ΔfcyA (A. fumigatus ΔfcyA): full resistance
- MIC (C. neoformans; pH 5): 0.39 mg/L (≈ 3.02 µM)
- MIC (C. neoformans; pH 7): 25 mg/L (≈ 194 µM)
- resistance after inactivation of fcyB (A. fumigatus ΔfcyB; 10 μg/ml, pH 5, AMM): resistance
- growth of ΔfcyB (A. fumigatus ΔfcyB; pH5): not able to grow
- growth of ΔfcyB (A. fumigatus ΔfcyB; pH7): severe growth inhibition
- susceptibility of WT isolate ([1]; 10 μg/ml, AMM with 100 mM citrate buffer pH 5): highly susceptible
- pH dependence of activity ([1]; A. fumigatus): much more active at pH5
- level that blocked wt growth ([1]; wt, pH5, plate growth): ≥ 1 µg/mL
- level required to block wt growth ([1]; wt, pH7, plate growth): 100 µg/mL
